This is an account of results in ChEMBL document CHEMBL1157583, “Novel irreversible epidermal growth factor receptor inhibitors by chemical modulation of the cysteine-trap portion” (J Med Chem, 2010).

For orientation: inhibition means the change of the read-out against control, counted positive when it falls. What is called IC50 is the concentration at which inhibition is half-maximal.

Active and inactive are the calls of the source. The rule behind the calls is not given here.

The target in data set [1] is T1, Epidermal growth factor receptor (Homo sapiens, UniProt P00533). Conditions: A-431, at 1 µM.
T1 sequence (P00533 whole entry): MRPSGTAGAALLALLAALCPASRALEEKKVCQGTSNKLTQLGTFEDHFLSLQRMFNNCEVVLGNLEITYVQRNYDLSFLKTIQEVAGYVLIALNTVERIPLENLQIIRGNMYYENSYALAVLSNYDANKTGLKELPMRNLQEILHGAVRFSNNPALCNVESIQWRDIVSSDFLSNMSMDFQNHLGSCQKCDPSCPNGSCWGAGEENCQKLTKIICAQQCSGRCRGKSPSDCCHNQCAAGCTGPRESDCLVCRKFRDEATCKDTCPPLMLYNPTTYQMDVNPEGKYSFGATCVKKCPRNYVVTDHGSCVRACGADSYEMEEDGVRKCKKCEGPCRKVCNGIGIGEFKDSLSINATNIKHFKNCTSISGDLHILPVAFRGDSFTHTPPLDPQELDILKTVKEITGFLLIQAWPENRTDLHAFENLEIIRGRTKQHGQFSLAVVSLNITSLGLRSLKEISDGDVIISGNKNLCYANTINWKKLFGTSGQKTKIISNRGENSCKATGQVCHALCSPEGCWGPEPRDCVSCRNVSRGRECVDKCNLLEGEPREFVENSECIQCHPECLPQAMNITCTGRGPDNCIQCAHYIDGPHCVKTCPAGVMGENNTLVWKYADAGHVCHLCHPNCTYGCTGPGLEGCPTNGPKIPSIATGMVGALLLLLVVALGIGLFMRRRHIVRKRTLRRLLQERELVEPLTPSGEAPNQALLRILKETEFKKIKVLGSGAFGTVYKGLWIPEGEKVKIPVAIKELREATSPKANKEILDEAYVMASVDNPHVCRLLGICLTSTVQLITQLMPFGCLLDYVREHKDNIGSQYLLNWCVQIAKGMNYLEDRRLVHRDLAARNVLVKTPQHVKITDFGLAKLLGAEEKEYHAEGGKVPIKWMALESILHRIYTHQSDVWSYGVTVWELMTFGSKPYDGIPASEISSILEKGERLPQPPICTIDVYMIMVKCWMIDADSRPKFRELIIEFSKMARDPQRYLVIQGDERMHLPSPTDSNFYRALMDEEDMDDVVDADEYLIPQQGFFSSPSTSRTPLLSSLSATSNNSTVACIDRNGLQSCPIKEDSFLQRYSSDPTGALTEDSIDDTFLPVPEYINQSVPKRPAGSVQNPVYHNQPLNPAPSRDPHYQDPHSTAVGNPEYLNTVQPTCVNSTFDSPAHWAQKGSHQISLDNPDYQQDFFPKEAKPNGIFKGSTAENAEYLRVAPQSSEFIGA
Description: Inhibition of EGFR autophosphorylation in human A431 cells at 1 uM after 1 hr by Western blot
Data set [2] concerns the target T1, Epidermal growth factor receptor. The experiment in a line: Inhibition of EGFR autophosphorylation in human A431 cells after 8 hrs by Western blot. Type of data set: cell-based, A-431. In general terms: Immunoblotting shows a protein as a band on a membrane.
Data set [3] has the same target. The data set can be described thus: Inhibition of EGFR autophosphorylation in human A431 cells after 1 hr by Western blot. Type of data set: cell-based, A-431.
Data set [4] shares this target. The data set can be described thus: Inhibition of human recombinant EGFR expressed in insect cells by time-resolved fluorimetry. Format: cell-based.
The target is the same in data set [5]. Conditions: A-431, at 1 µM. This is another data set of the same source.
Description: Inhibition of EGFR autophosphorylation in human A431 cells at 1 uM after 8 hrs by Western blot
In data set [6] the test system is NCI-H1975. The data set can be described thus: Antiproliferative activity against human NCI-H1975 cells after 72 hrs by MTT assay. Type of data set: functional, cell-based. Conditions: NCI-H1975, 72 h. (Formazan colour is commonly taken as a measure of viable cells.)
Data set [7] concerns SW-620. The data set can be described thus: Cytotoxicity against human SW620 cells after 72 hrs by MTT assay. Conditions: SW-620, 72 h. Format: ADME, cell-based.
In data set [8] the test system is SW-620. The data set can be described thus: Cytotoxicity against human SW620 cells at 10 uM after 72 hrs by MTT assay. Type of data set: cell-based. Conditions: sw-620, 72 h.
For data set [9], the system named is NCI-H1975. The data set can be described thus: Cytotoxicity against human NCI-H1975 cells assessed as cell death at 5 uM after 72 hrs by propidium iodide/Hoechst staining based fluorescence microscopy. Format: functional.
In data set [10] the target is Receptor tyrosine-protein kinase erbB-2 (Homo sapiens) (UniProt P04626). The data set can be described thus: Inhibition of ERBB2 autophosphorylation in human NCI-H1975 cells by Western blot. Format: cell-based.
Chain of Receptor tyrosine-protein kinase erbB-2 (Homo sapiens) (P04626 whole entry): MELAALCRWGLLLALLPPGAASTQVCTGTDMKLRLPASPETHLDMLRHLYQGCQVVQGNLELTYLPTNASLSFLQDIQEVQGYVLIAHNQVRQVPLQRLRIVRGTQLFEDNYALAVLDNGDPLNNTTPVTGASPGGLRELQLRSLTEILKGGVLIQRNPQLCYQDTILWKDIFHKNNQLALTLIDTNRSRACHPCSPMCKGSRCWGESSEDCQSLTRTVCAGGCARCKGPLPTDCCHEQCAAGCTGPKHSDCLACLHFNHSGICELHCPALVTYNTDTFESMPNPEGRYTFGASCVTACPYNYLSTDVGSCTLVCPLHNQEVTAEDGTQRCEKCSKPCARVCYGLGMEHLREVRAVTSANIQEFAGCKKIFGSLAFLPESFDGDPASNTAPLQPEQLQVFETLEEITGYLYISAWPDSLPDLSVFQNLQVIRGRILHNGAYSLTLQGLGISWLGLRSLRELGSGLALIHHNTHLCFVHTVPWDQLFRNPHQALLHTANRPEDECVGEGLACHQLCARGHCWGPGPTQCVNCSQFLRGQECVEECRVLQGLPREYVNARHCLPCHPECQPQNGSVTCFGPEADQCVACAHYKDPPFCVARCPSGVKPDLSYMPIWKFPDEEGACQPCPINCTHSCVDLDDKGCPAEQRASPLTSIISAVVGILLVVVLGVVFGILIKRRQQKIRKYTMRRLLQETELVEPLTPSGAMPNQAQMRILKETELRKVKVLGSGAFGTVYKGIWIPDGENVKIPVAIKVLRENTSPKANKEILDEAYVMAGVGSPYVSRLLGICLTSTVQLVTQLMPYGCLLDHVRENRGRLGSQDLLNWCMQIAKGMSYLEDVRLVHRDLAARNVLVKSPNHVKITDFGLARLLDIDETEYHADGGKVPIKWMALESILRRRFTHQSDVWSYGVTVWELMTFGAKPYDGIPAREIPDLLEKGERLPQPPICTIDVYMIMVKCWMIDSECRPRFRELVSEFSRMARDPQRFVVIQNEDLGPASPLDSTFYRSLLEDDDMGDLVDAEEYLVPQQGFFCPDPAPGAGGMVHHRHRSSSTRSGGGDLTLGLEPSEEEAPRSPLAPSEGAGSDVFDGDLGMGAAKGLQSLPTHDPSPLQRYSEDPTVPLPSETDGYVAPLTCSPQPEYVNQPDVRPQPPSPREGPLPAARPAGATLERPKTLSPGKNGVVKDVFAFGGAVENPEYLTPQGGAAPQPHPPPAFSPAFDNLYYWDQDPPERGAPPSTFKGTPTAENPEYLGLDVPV
Another data set deals with A-431. The experiment in a line: Antiproliferative activity against human A431 cells assessed as viable cells at 10 uM. Format: functional. Conditions: read-out: Activity.
In data set [11] the test system is NCI-H1975. The data set can be described thus: Induction of apoptosis in human NCI-H1975 cells assessed as activation of caspase-3 at 5 uM after 2 days by Western blot. Format: functional, cell-based.

With `O=C(COc1ccc(F)cc1)Nc1ccc2ncnc(Nc3cccc(Br)c3)c2c1`, the inhibition was determined as 97.4% in [1] and 77.6% in data set [5]. Also, the concentration for half-maximal inhibition (IC50) in data set [2] is 291 nM; in data set [3], 76 nM; in data set [4], 8.43 nM; in the data set on NCI-H1975 [6] it was 7820 nM.

`C=CC(=O)Nc1ccc2ncnc(Nc3cccc(Br)c3)c2c1` had an IC50 in the data set with SW-620 [7] of 8230 nM.

As for `O=C(Nc1ccc2ncnc(Nc3cccc(Br)c3)c2c1)[C@@H]1O[C@H]1CN1CCCCC1`, the Activity in the data set on SW-620 [8] was less than 50%; with NCI-H1975 [9], 25%. Further, the inhibition in [1] is 99.4%; in data set [10], “Dose-dependent effect”; in data set [5], 96.3%. For the same compound, the IC50 in data set [2] is 44 nM; in data set [3], 7 nM; with SW-620 [7] it was more than 10000 nM; in data set [4] it was 1.24 nM; with NCI-H1975 [6], 1720 nM.

Turning to `Nc1ccc2ncnc(Nc3cccc(Br)c3)c2c1`, the inhibition in [1] stood at 98.5%; in data set [5], 0%.

For the compound `O=C(Cn1sc2ccccc2c1=O)Nc1ccc2ncnc(Nc3cccc(Br)c3)c2c1`, the figures for the inhibition in [1] and in data set [5] were 69% and 30.7%, respectively. In [4], the IC50 was 0.85 nM.

In the case of `CC(C)c1nsc(C(=O)Nc2ccc3ncnc(Nc4cccc(Br)c4)c3c2)n1`, the inhibition is 82.3% in data set [1] and 66.9% in [5]. For the same compound, in data set [4], the IC50 worked out at 129 nM.

Turning to `CCOC(=O)[C@@H]1O[C@H]1C(=O)Nc1ccc2ccccc2c1`, the viability at 10 µM in the data set with A-431 was less than 10%. For the same compound, the inhibition in data set [1] and in data set [5] was 0% in each case.

On to `COc1cc2ncnc(Nc3ccc(F)c(Cl)c3)c2cc1OCCCN1CCOCC1`, for which the outcome in the data set with NCI-H1975 [11] was Active.

Regarding `O=C(CNC(=O)Oc1ccccc1)Nc1ccc2ncnc(Nc3cccc(Br)c3)c2c1`, the inhibition in data set [1] turned out to be 95.2%; in [5], 79.9%. Moreover, the IC50 in data set [4] amounted to 0.37 nM.

In the case of `O=C(COc1ccccc1)Nc1ccc2ccccc2c1`, the viability at 10 µM in the data set on A-431 was less than 10%. For the same compound, the inhibition in [1] and in [5] was 0% each time.
